Earlier results as cited in patent US10918652B2, “Compositions for the treatment of dermatological diseases and disorders” (CLARIDEI LABORATORIES, INC., priority 2014, dated 2021).

Settings: cited from Ramachandran et al. 2006

**Q.** For `O=C(O)[C@H](O)[C@@H](O)[C@H](O)[C@H](O)CO` [Gluconic acid], which pKa is on record?
**A.** 3.7
